Twelve cell lines from the supplement of paper PMC10307832 can be followed below.

What all share (assay): relative viability (nuclei count vs DMSO), 5 days (fraction); higher = more cells survive
Compound in test [1]: COc1cc2nccc(Oc3ccc(NC(=O)C4(C(=O)Nc5ccc(F)cc5)CC4)cc3)c2cc1OC [Cabozantinib] + N=C(N)NC(=N)NCCc1ccccc1 [Phenformin] (partner 250 µM)
In short, it runs like this: (§1)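 Relative viability divides the nuclei count in treated wells by that in vehicle wells. Lung cancer cell lines were seeded in 1536-well plates, dosed by pin tool the next day, and fixed and stained after 5 days in one step with final 0.05% Triton X-100, 1% formaldehyde and 1 ug/ml Hoechst. Dosing was a single drug or a fixed anchor-drug dose plus five library-drug doses (not always all listed) in √10 steps, and values are medians of duplicate plates imaged at 4×.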

Compound in test [2]: COc1cc2nccc(Oc3ccc(NC(=O)C4(C(=O)Nc5ccc(F)cc5)CC4)cc3)c2cc1OC [Cabozantinib] + Cc1nc(Nc2ncc(C(=O)Nc3c(C)cccc3Cl)s2)cc(N2CCN(CCO)CC2)n1 [Dasatinib] (partner 0.075 µM)
A digest of the protocol:
as §1

Compound in test [3]: O[C@@H](COc1cccc2ncccc12)CN1CCN([C@@H]2c3ccccc3[C@@H]3[C@H](c4ccccc42)C3(F)F)CC1 [Zosuquidar] + Nc1ncn([C@H]2C[C@H](O)[C@@H](CO)O2)c(=O)n1 [Decitabine] (partner 2 µM)
In short, it runs like this: as §1

Compound in test [4]: COc1cc2nccc(Oc3ccc(NC(=O)C4(C(=O)Nc5ccc(F)cc5)CC4)cc3)c2cc1OC [Cabozantinib] + NC(=O)Nc1cc(-c2cccc(F)c2)sc1C(=O)N[C@H]1CCCNC1 [AZD7762] (partner 0.2 µM)
A digest of the protocol:
as §1

Regarding NCI-H661, the relative viability in test [1] (first compound 0.02 µM) worked out at 0.273; in test [1] (first compound 0.06325 µM), 0.252; in test [1] (first compound 0.2 µM), 0.283; in test [1] (first compound 0.6325 µM), 0.335; in test [1] (first compound 2 µM), 0.286; in test [2] (first compound 0.02 µM), 0.732. The relative viability stood at 0.838 in test [2] (first compound 0.06325 µM); 0.724 in test [2] (first compound 0.2 µM); 0.767 in test [2] (first compound 0.6325 µM); 0.772 in test [2] (first compound 2 µM); 0.557 in test [3] (first compound 0.01 µM); 0.54 in test [3] (first compound 0.03162 µM). In addition, the figures for the relative viability in test [3] (first compound 0.1 µM), in test [3] (first compound 0.3162 µM) and in test [3] (first compound 1 µM) were 0.595, 0.516 and 0.523, respectively.
On to NCI-H1563, for which the relative viability amounted to 0.601 in test [1] (first compound 0.02 µM); 0.668 in test [1] (first compound 0.06325 µM); 0.658 in test [1] (first compound 0.2 µM); 0.702 in test [1] (first compound 0.6325 µM); 0.709 in test [1] (first compound 2 µM); 0.386 in test [2] (first compound 0.02 µM). For the same cell line, the relative viability was determined as 0.424 in test [2] (first compound 0.06325 µM), 0.43 in test [2] (first compound 0.2 µM), 0.498 in test [2] (first compound 0.6325 µM) and 0.452 in test [2] (first compound 2 µM).
For NCI-H1623, the relative viability in test [1] (first compound 0.02 µM) was 0.545; in test [1] (first compound 0.06325 µM), 0.667; in test [1] (first compound 0.2 µM), 0.526; in test [1] (first compound 0.6325 µM), 0.519; in test [1] (first compound 2 µM), 0.585; in test [2] (first compound 0.02 µM), 0.483. Moreover, the relative viability in test [2] (first compound 0.06325 µM) was determined as 0.606; in test [2] (first compound 0.2 µM), 0.486; in test [2] (first compound 0.6325 µM), 0.486; in test [2] (first compound 2 µM), 0.568.
For the cell line NCI-H1648, the relative viability in test [4] (first compound 0.02 µM) was 0.792; in test [4] (first compound 0.06325 µM), 0.737; in test [4] (first compound 0.6325 µM), 0.721; in test [4] (first compound 2 µM), 0.73; in test [3] (first compound 0.01 µM), 0.427; in test [3] (first compound 0.03162 µM), 0.612. Besides, the relative viability is 0.434 in test [3] (first compound 0.1 µM), 0.455 in test [3] (first compound 0.3162 µM) and 0.489 in test [3] (first compound 1 µM).
As for NCI-H1650, the relative viability in test [1] (first compound 0.02 µM) came out at 0.434; in test [1] (first compound 0.06325 µM), 0.556; in test [1] (first compound 0.2 µM) it was 0.395; in test [1] (first compound 0.6325 µM), 0.43; in test [1] (first compound 2 µM), 0.376; in test [2] (first compound 0.02 µM) it was 0.261. In addition, the relative viability was 0.292 in test [2] (first compound 0.06325 µM); 0.294 in test [2] (first compound 0.2 µM); 0.303 in test [2] (first compound 0.6325 µM); 0.225 in test [2] (first compound 2 µM); 0.451 in test [3] (first compound 0.01 µM); 0.439 in test [3] (first compound 0.03162 µM). Besides, the relative viability in test [3] (first compound 0.1 µM) was 0.553; in test [3] (first compound 0.3162 µM) it was 0.398; in test [3] (first compound 1 µM), 0.378.
Turning to NCI-H1703, the relative viability in test [4] (first compound 0.02 µM) is 0.118; in test [4] (first compound 0.06325 µM), 0.129; in test [4] (first compound 0.2 µM), 0.133; in test [4] (first compound 0.6325 µM) it was 0.136; in test [4] (first compound 2 µM) it was 0.139.
Turning to NCI-H2009, the relative viability came out at 0.532 in test [1] (first compound 0.02 µM); 0.549 in test [1] (first compound 0.06325 µM); 0.547 in test [1] (first compound 0.2 µM); 0.518 in test [1] (first compound 0.6325 µM); 0.459 in test [1] (first compound 2 µM); 0.289 in test [2] (first compound 0.02 µM). For the same cell line, the relative viability in test [2] (first compound 0.06325 µM) stood at 0.298; in test [2] (first compound 0.2 µM), 0.267; in test [2] (first compound 0.6325 µM), 0.217; in test [2] (first compound 2 µM), 0.201; in test [3] (first compound 0.01 µM), 0.348; in test [3] (first compound 0.03162 µM), 0.338. In addition, the relative viability in test [3] (first compound 0.1 µM) stood at 0.376; in test [3] (first compound 0.3162 µM), 0.327; in test [3] (first compound 1 µM) it was 0.344.
In the case of NCI-H2023, the relative viability in test [1] (first compound 0.02 µM) was 0.444; in test [1] (first compound 0.06325 µM), 0.463; in test [1] (first compound 0.2 µM), 0.337; in test [1] (first compound 0.6325 µM), 0.26; in test [1] (first compound 2 µM) it was 0.236; in test [2] (first compound 0.02 µM), 0.45. The relative viability in test [2] (first compound 0.06325 µM) stood at 0.531; in test [2] (first compound 0.2 µM), 0.369; in test [2] (first compound 0.6325 µM) it was 0.311; in test [2] (first compound 2 µM) it was 0.248; in test [3] (first compound 0.01 µM), 0.195; in test [3] (first compound 0.03162 µM), 0.281. In addition, the relative viability in test [3] (first compound 0.1 µM) worked out at 0.235; in test [3] (first compound 0.3162 µM), 0.246; in test [3] (first compound 1 µM), 0.268.
Take NCI-H2228: the relative viability amounted to 0.392 in test [1] (first compound 0.02 µM); 0.359 in test [1] (first compound 0.06325 µM); 0.298 in test [1] (first compound 0.2 µM); 0.471 in test [1] (first compound 0.6325 µM); 0.35 in test [1] (first compound 2 µM); 0.531 in test [2] (first compound 0.02 µM). In addition, the relative viability was found to be 0.624 in test [2] (first compound 0.06325 µM), 0.471 in test [2] (first compound 0.2 µM), 0.472 in test [2] (first compound 0.6325 µM) and 0.55 in test [2] (first compound 2 µM).
Regarding SK-LU-1, the relative viability was 0.587 in test [1] (first compound 0.02 µM); 0.791 in test [1] (first compound 0.06325 µM); 0.552 in test [1] (first compound 0.2 µM); 0.476 in test [1] (first compound 0.6325 µM); 0.438 in test [1] (first compound 2 µM); 0.138 in test [2] (first compound 0.02 µM). Also, the relative viability in test [2] (first compound 0.06325 µM) is 0.164; in test [2] (first compound 0.2 µM) it was 0.174; in test [2] (first compound 0.6325 µM) it was 0.155; in test [2] (first compound 2 µM), 0.156; in test [3] (first compound 0.01 µM), 0.652; in test [3] (first compound 0.03162 µM) it was 0.66. Also, the relative viability was determined as 0.684 in test [3] (first compound 0.1 µM), 0.679 in test [3] (first compound 0.3162 µM) and 0.638 in test [3] (first compound 1 µM).
Consider SK-MES-1, for which the relative viability is 0.701 in test [1] (first compound 0.02 µM); 0.688 in test [1] (first compound 0.06325 µM); 0.705 in test [1] (first compound 0.2 µM); 0.667 in test [1] (first compound 0.6325 µM); 0.631 in test [1] (first compound 2 µM); 0.335 in test [2] (first compound 0.02 µM). The relative viability in test [2] (first compound 0.06325 µM) is 0.518; in test [2] (first compound 0.2 µM) it was 0.293; in test [2] (first compound 0.6325 µM) it was 0.432; in test [2] (first compound 2 µM), 0.242; in test [3] (first compound 0.01 µM), 0.343; in test [3] (first compound 0.03162 µM) it was 0.36. For the same cell line, the values for the relative viability in test [3] (first compound 0.1 µM), in test [3] (first compound 0.3162 µM) and in test [3] (first compound 1 µM) were 0.347, 0.422 and 0.402, respectively.
On to SW 1573, for which the relative viability in test [1] (first compound 0.02 µM) is 0.45; in test [1] (first compound 0.06325 µM), 0.368; in test [1] (first compound 0.2 µM), 0.331; in test [1] (first compound 0.6325 µM), 0.365; in test [1] (first compound 2 µM), 0.345; in test [2] (first compound 0.02 µM) it was 0.438. For the same cell line, the relative viability in test [2] (first compound 0.06325 µM) stood at 0.738; in test [2] (first compound 0.2 µM) it was 0.453; in test [2] (first compound 0.6325 µM), 0.624; in test [2] (first compound 2 µM), 0.456; in test [3] (first compound 0.01 µM), 0.372; in test [3] (first compound 0.03162 µM) it was 0.508. The relative viability turned out to be 0.568 in test [3] (first compound 0.1 µM), 0.598 in test [3] (first compound 0.3162 µM) and 0.591 in test [3] (first compound 1 µM).
